Source: ChEMBL document CHEMBL3885861, “Open TG-GATES”

Organism: Rattus norvegicus
Experiment: Open TG-GATES - Regimen: Daily Repeat
Format: toxicity, organism-based, Sprague-Dawley
Design: regimen Daily Repeat, gender Male, age 6 weeks
Conditions: in vivo, po, 10 mg/kg, route gavage, dose level Low; for APTT / Bas / Eos / Fbg / Hb / Ht / Lym / MCH / MCHC / MCV / Mono / Neu / PT / Plat / RBC / Ret / WBC: tissue Blood; for KIDNEY_L / KIDNEY_R / KIDNEY_TOTAL: tissue Kidney; for LIVER: tissue Liver; for A/G / ALP / ALT / AST / BUN / CRE / Ca / Cl / DBIL / GLC / IP / K / LDH / Na / PL / RALB / TBIL / TC / TG / TP / gamma-GTP: tissue Plasma

## NC(=O)N/N=C/c1ccc([N+](=O)[O-])o1 [NITROFURAZONE]
72 h, time 3 day
  TERMINAL_BW: 217.9 g
  APTT: 14.6 s
  Bas: 0.2%
  Eos: 0.8%
  Fbg: 265.6 mg/dL
  Hb: 12.9 g/dL
  Ht: 39.6%
  Lym: 77.8%
  MCH: 22.1 pg
  MCHC: 32.6%
  MCV: 67.8 fL
  Mono: 3.2%
  Neu: 17.8%
  PT: 14.4 s
  Plat: 118.7 x10_4/uL
  RBC: 584.8 x10_4/ul
  Ret: 9.3%
  WBC: 97.1 x10_2/uL
  KIDNEY_L: 1 g
  KIDNEY_R: 1 g
  KIDNEY_TOTAL: 1.9 g
  LIVER: 10.7 g
  A/G: 0.9
  ALP: 1665.4 IU/L
  ALT: 49 IU/L
  AST: 74.6 IU/L
  BUN: 15 mg/dL
  CRE: 0.2 mg/dL
  Ca: 11.3 mg/dL
  Cl: 105.6 meq/L
  DBIL: 0.018 mg/dL
  GLC: 189 mg/dL
  IP: 7.9 mg/dL
  K: 4.3 meq/L
  LDH: 69.6 IU/L
  Na: 141.4 meq/L
  PL: 151.8 mg/dL
  RALB: 2.6 g/dL
  TBIL: 0.048 mg/dL
  TC: 85 mg/dL
  TG: 97.8 mg/dL
  TP: 5.5 g/dL
  gamma-GTP: 1 IU/L
[…], time 7 day
  TERMINAL_BW: 257.3 g
  APTT: 16.7 s
  Bas: 0%
  Eos: 1%
  Fbg: 257 mg/dL
  Hb: 13.2 g/dL
  Ht: 39.3%
  Lym: 79.2%
  MCH: 21.5 pg
  MCHC: 33.7%
  MCV: 64 fL
  Mono: 2.4%
  Neu: 16.6%
  PT: 14.3 s
  Plat: 113.7 x10_4/uL
  RBC: 615 x10_4/ul
  Ret: 7.1%
  WBC: 83.6 x10_2/uL
  KIDNEY_L: 1.1 g
  KIDNEY_R: 1.1 g
  KIDNEY_TOTAL: 2.2 g
  LIVER: 12.9 g
  A/G: 0.9
  ALP: 1835.8 IU/L
  ALT: 44.6 IU/L
  AST: 70.8 IU/L
  BUN: 15.6 mg/dL
  CRE: 0.2 mg/dL
  Ca: 11.1 mg/dL
  Cl: 104 meq/L
  DBIL: 0.016 mg/dL
  GLC: 184 mg/dL
  IP: 7.7 mg/dL
  K: 3.7 meq/L
  LDH: 67 IU/L
  Na: 141.4 meq/L
  PL: 156.4 mg/dL
  RALB: 2.6 g/dL
  TBIL: 0.05 mg/dL
  TC: 83.4 mg/dL
  TG: 102 mg/dL
  TP: 5.6 g/dL
  gamma-GTP: 1 IU/L
[…], time 14 day
  TERMINAL_BW: 318.7 g
  APTT: 15.2 s
  Bas: 0.2%
  Eos: 0.8%
  Fbg: 353 mg/dL
  Hb: 13.5 g/dL
  Ht: 40.9%
  Lym: 80%
  MCH: 20.2 pg
  MCHC: 33%
  MCV: 61.3 fL
  Mono: 2%
  Neu: 14.4%
  PT: 14.7 s
  Plat: 111.7 x10_4/uL
  RBC: 666.6 x10_4/ul
  Ret: 4.5%
  WBC: 106.9 x10_2/uL
  KIDNEY_L: 1.3 g
  KIDNEY_R: 1.2 g
  KIDNEY_TOTAL: 2.5 g
  LIVER: 15.3 g
  A/G: 0.8
  ALP: 1653.4 IU/L
  ALT: 47.4 IU/L
  AST: 83.6 IU/L
  BUN: 17.8 mg/dL
  CRE: 0.2 mg/dL
  Ca: 10.9 mg/dL
  Cl: 105 meq/L
  DBIL: 0.014 mg/dL
  GLC: 185.8 mg/dL
  IP: 7.3 mg/dL
  K: 4.1 meq/L
  LDH: 92.4 IU/L
  Na: 142.4 meq/L
  PL: 156.2 mg/dL
  RALB: 2.7 g/dL
  TBIL: 0.044 mg/dL
  TC: 77.8 mg/dL
  TG: 123.8 mg/dL
  TP: 5.8 g/dL
  gamma-GTP: 1.4 IU/L
[…], time 28 day
  TERMINAL_BW: 442.9 g
  APTT: 16.4 s
  Bas: 0%
  Eos: 1.4%
  Fbg: 292.6 mg/dL
  Hb: 14.7 g/dL
  Ht: 43.8%
  Lym: 76.4%
  MCH: 19.3 pg
  MCHC: 33.6%
  MCV: 57.6 fL
  Mono: 2.2%
  Neu: 19.4%
  PT: 14.8 s
  Plat: 94.4 x10_4/uL
  RBC: 761 x10_4/ul
  Ret: 3%
  WBC: 94.8 x10_2/uL
  KIDNEY_L: 1.5 g
  KIDNEY_R: 1.5 g
  KIDNEY_TOTAL: 3.1 g
  LIVER: 18.6 g
  A/G: 0.8
  ALP: 1381.2 IU/L
  ALT: 39.4 IU/L
  AST: 64 IU/L
  BUN: 17.4 mg/dL
  CRE: 0.2 mg/dL
  Ca: 10.8 mg/dL
  Cl: 103.6 meq/L
  DBIL: 0.014 mg/dL
  GLC: 187.2 mg/dL
  IP: 6.6 mg/dL
  K: 3.6 meq/L
  LDH: 47.8 IU/L
  Na: 143 meq/L
  PL: 154.2 mg/dL
  RALB: 2.7 g/dL
  TBIL: 0.062 mg/dL
  TC: 78 mg/dL
  TG: 133.6 mg/dL
  TP: 6.2 g/dL
  gamma-GTP: 1 IU/L
